Measurements: patent US20200148617A1, “GEMCABENE, PHARMACEUTICALLY ACCEPTABLE SALTS THEREOF, COMPOSITIONS THEREOF AND METHODS OF USE THEREFOR” (GEMPHIRE THERAPEUTICS INC., priority 2017, published 2020)

Columns and labels:
[1] = Particle size distribution by laser light diffraction (Malvern Mastersizer 2000, Fraunhofer); type: physicochemical; settings: cumulative volume
Description: In some embodiments, the particle size distribution and the PSD90 of a compound of the invention is determined by the laser light diffraction particle size distribution analysis. The particle size distribution is determined in accordance with the Fraunhofer light diffraction method. In this method, a coherent laser beam passes through the sample and the resulting diffraction pattern is focused on a multi-element detector. Since the diffraction pattern depends, among other parameters, on particle size, the particle size distribution can be calculated based on the measured diffraction pattern of the sample. The method is described in more detail in USP38-NF33, <429> Light Diffraction Measurement of Particle Size.
The particle size distribution was determined in accordance with the Fraunhofer light diffraction method. A coherent laser beam was passed through the sample and the resulting diffraction pattern was focused on a multi-element detector. Because the diffraction pattern depends, among other parameters, on particle size, the particle size distribution (PSD) was calculated based on the measured diffraction patter of the sample.
Stock dispersion solution was prepared by adding a few drops of the dispersing aid (e.g., 1% w/w solution of a detergent in white spirit such as Span 80, Fluka (85548-250 ml)) to an appropriate amount of substance and mixed carefully. The dispersion was then slowly diluted to a final volume of about 10 ml while vortexing. The suspension cell of the instrument (Malvern Mastersizer 2000 equipped with Hydro 2000S sample dispersion unit) was filled with dispersion medium and a background measurement was taken. […] The cumulative volume distribution was determined in accordance with the instrument's instruction manual.
The PSD10, PSD50, and PSD90 values were determined from the cumulative volume distribution of each measurement. Values smaller than 10 μm were reported to one decimal place. Results larger than 10 μm were reported as single digit values. Sample parameters used in analysis are shown below: […]

[2] = tested on: hepatic mRNA expression in STAM™ mice; experiment: Murine STAM model of NASH-HCC: hepatic gene expression by quantitative RT-PCR; type: in vivo, mouse
Description: A study was performed to evaluate the efficacy of gemcabene calcium salt hydrate Crystal Form 1 having a PSD90 of 52 μm as measured by laser light diffraction, in treating non-alcoholic steatosis hepatitis (NASH) in the murine STAM™ model of NASH-HCC.
Briefly, two-day old neonatal C57BL/6 male mice were administered low-dose streptozotocin (STZ), and were subsequently fed a HFC diet from 4 weeks of age. In this model, the mice typically develop liver steatosis and diabetes, reaching steatohepatitis within 3 weeks, followed by cirrhosis within 8 weeks, and carcinoma within 16 weeks. In the current study, mice were administered daily oral gemcabene calcium salt hydrate Crystal Form 1 starting at week 6 of age and were sacrificed at week 9. Telmisartan (with antisteatotic, anti-inflammatory and antifibrotic effects in STAM™ mice) was used as a positive comparator. A baseline reference group was administered vehicle at day 2 of age, and from week 6 of age was vehicle-treated and chow-fed. Five STAM™ groups were streptozocin-treated at day 2 of age and fed a HFC-diet beginning with week 4 of age. These STAM™ groups were orally administered from week 6 one of the following: water-vehicle, gemcabene calcium salt hydrate Crystal Form 1 at 30, 100 and 300 mg/kg daily, or telmisartan ([…]®) 10 mg/kg daily. Telmisartan ([…]®) was purchased from Boehringer Ingelheim GmbH (Germany) and dissolved in pure water. All groups were sacrificed at week 9. Vehicle, gemcabene calcium salt hydrate Crystal Form 1, or telmisartan were administered by oral gavage once daily.
Various gene expression markers of liver metabolism were evaluated by Real-Time PCR (RT-PCR) in all mouse groups. Total RNA was extracted from liver samples using RNAiso (Takara Bio, Japan) according to the manufacturer's instructions. One μg of RNA was reverse-transcribed using a reaction mixture containing 4.4 mM MgCl2 (F. Hoffmann-La Roche, Switzerland), 40 U RNase inhibitor (Toyobo, Japan), 0.5 mM dNTP (Promega, USA), 6.28 μM random hexamer (Promega), 5× first strand buffer (Promega), 10 mM dithiothreitol (Invitrogen, USA) and 200 U MMLV-RT (Invitrogen) in a final volume of 20 μL. The reaction was carried out for 1 hour at 37° C., followed by 5 minutes at 99° C. Real-time PCR was performed using real-time PCR DICE and SYBR premix Taq (Takara Bio). To calculate the relative mRNA expression level, the expression of each gene was normalized to that of reference gene 36B4 (gene symbol: Rplp0). Information of PCR-primer sets is described in Tables 20A-20C. Statistical analyses were performed using the Bonferroni Multiple Comparison Test on GraphPad Prism 6 (GraphPad Software Inc., USA). P values <0.05 were considered statistically significant. Results are expressed as mean±SD.
In order to calculate the relative mRNA expression level, the expression of each gene was normalized to that of the reference gene 36B4 (gene symbol: Rplp0). The gene expression levels were measured by quantitative RT-PCR. Results were normalized with values for the vehicle-treated normal group. […] Gemcabene calcium salt hydrate Crystal Form 1 (PSD90=52 μm) modulated the mRNA expression of many hepatic genes that play a significant role in the liver homeostasis and injury.

[3] = Effect of steady-state gemcabene 600 mg on single-dose pharmacokinetics of ON 1/35 (ethinyl estradiol/norethindrone) in healthy female subjects; type: in vivo, human; settings: for exposure in presence of gemcabene calcium salt hydrate Crystal Form 1 (geometric LS mean ratio): single dose ON 1/35 with gemcabene 600 mg daily at steady state, mild drug-drug interaction
Description: An open-label, two-sequence, cross-over study to assess the steady-state effects of gemcabene on the single-dose pharmacokinetics (PK) of oral contraceptive tablets in healthy female subjects was conducted with 300 mg tablets containing gemcabene calcium salt hydrate Crystal Form 1 having PSD90 of 52 μm (Tablet F).
The population for this study was generally healthy, adult female subjects of childbearing potential (≥18 to ≤35 years of age). This population supports the overall objective of the study to evaluate the effect of 600 mg of gemcabene calcium salt hydrate Crystal Form 1 having PSD90 of 52 μm at steady-state on the PK of a single dose of ON 1/35 (Ortho Novum 1/35; combined ethinyl estradiol/norethindrone oral contraceptive). The primary objective of this study was to assess the effect of daily 600 mg of gemcabene calcium salt hydrate Crystal Form 1 having PSD90 of 52 μm at steady-state on the pharmacokinetics (PK) of ON 1/35. The secondary objectives of this study were to assess the safety and tolerability of daily gemcabene 600 mg in combination with a single-dose ON 1/35 and to assess the steady-state PK of 600 mg of gemcabene calcium salt hydrate Crystal Form 1 having PSD90 of 52 μm (Tablet F×2).
Gemcabene calcium salt hydrate Crystal Form 1 having PSD90 of 52 μm was administered orally as a single dose of 600 mg, given as two 300 mg tablets (300-mg Tablet F×2) (with 240 mL of water). Gemcabene calcium salt hydrate Crystal Form 1 having PSD90 of 52 μm (600 mg) was administered at the same time each day.
Non-compartmental PK single-dose parameters were obtained, including Cmax, time to the maximum observed plasma concentration (Tmax), AUC from time 0 to time of last detectable concentration (AUClast) and when possible, AUC extrapolated to infinite time (AUC∞), percent of AUC∞ obtained from forward extrapolation (AUCextrap %), apparent terminal rate constant (λz), apparent terminal half-life ([…]), apparent total body clearance (CL/F), and apparent volume of distribution of the terminal phase (Vz/F) for ethinyl estradiol and norethindrone.

[4] = 10 mg/kg, normalized to Vehicle in Normal, mean ± SD, n = 7
[5] = Treatment B = single dose ON 1/35 and daily gemcabene 600 mg, Treatment A = single dose ON 1/35 alone, healthy female subjects

SMILES	D10 (PSD10) [1]	D50 (PSD50) [1]	D90 (PSD90) [1]	also measured
CC(C)(CCCCOCCCCC(C)(C)C(=O)[O-])C(=O)[O-].[Ca+2] [Sample 5]	7.8 μm	101 μm	431 μm	
CC(C)(CCCCOCCCCC(C)(C)C(=O)[O-])C(=O)[O-].[Ca+2] [Sample 6]	7.8 μm	25 μm	52 μm	
CC(C)(CCCCOCCCCC(C)(C)C(=O)[O-])C(=O)[O-].[Ca+2] [Sample 9]	17 μm	386 μm	996 μm	
CC(C)(CCCCOCCCCC(C)(C)C(=O)[O-])C(=O)[O-].[Ca+2] [Sample 8]	8.2 μm	24 μm	48 μm	
CC(C)(CCCCOCCCCC(C)(C)C(=O)[O-])C(=O)[O-].[Ca+2] [Sample 2]	4.8 μm	22.9 μm		
CC(C)(CCCCOCCCCC(C)(C)C(=O)[O-])C(=O)[O-].[Ca+2] [Sample 7]	5.4 μm	20 μm	62 μm	
CCCc1nc2c(C)cc(-c3nc4ccccc4n3C)cc2n1Cc1ccc(-c2ccccc2C(=O)O)cc1 [telmisartan, reference compound]				ANGPTL3 gene expression (hepatic mRNA, RT-PCR) [2, 4]: 0.7 ± 0.2; ANGPTL4 gene expression (hepatic mRNA, RT-PCR) [2, 4]: 2.1 ± 0.3; CCR5 gene expression (hepatic mRNA, RT-PCR) [2, 4]: 1.5 ± 0.3; CXCL1/KC gene expression (hepatic mRNA, RT-PCR) [2, 4]: 0.6 ± 0.3; LPL gene expression (hepatic mRNA, RT-PCR) [2, 4]: 2.4 ± 0.5; Sulf-2 gene expression (hepatic mRNA, RT-PCR) [2, 4]: 3.9 ± 0.9; CRP mRNA levels ([2]; telmisartan 10 mg/kg, vs vehicle-treated STAM group): No significant differences
CC(C)(CCCCOCCCCC(C)(C)C(=O)[O-])C(=O)[O-].[Ca+2] [Sample 4]	5.8 μm	22 μm	52 μm	
C#C[C@]1(O)CC[C@H]2[C@@H]3CCC4=CC(=O)CC[C@@H]4[C@H]3CC[C@@]21C [norethindrone]				AUCinf (h*pg/mL): Ratio Geom. LS Mean (Treatment B/Treatment A) [3, 5]: 86.33%; AUClast (h*pg/mL): Ratio Geom. LS Mean (Treatment B/Treatment A) [3, 5]: 85.94%; Cmax (pg/mL): Ratio Geom. LS Mean (Treatment B/Treatment A) [3, 5]: 90.56%; exposure in presence of gemcabene calcium salt hydrate Crystal Form 1 (geometric LS mean ratio) [3]: slightly decreased
CC(C)(CCCCOCCCCC(C)(C)C(=O)[O-])C(=O)[O-].[Ca+2] [Sample 3]	5.3 μm	32.2 μm		
CC(C)(CCCCOCCCCC(C)(C)C(=O)[O-])C(=O)[O-].[Ca+2] [Sample 10]			55 μm	
C#C[C@]1(O)CC[C@H]2[C@@H]3CCc4cc(O)ccc4[C@H]3CC[C@@]21C [ethinyl estradiol]				AUC0-12 (h*pg/mL): Ratio Geom. LS Mean (Treatment B/Treatment A) [3, 5]: 78.54%; AUClast (h*pg/mL): Ratio Geom. LS Mean (Treatment B/Treatment A) [3, 5]: 86.70%; Cmax (pg/mL): Ratio Geom. LS Mean (Treatment B/Treatment A) [3, 5]: 70.50%; exposure in presence of gemcabene calcium salt hydrate Crystal Form 1 (geometric LS mean ratio) [3]: slightly decreased
CC(C)(CCCCOCCCCC(C)(C)C(=O)[O-])C(=O)[O-].[Ca+2] [Sample 1]	6.3 μm	50.4 μm		
CC(C)(CCCCOCCCCC(C)(C)C(=O)[O-])C(=O)[O-].[Ca+2] [Sample 11]			47 μm	
